Converted amounts (≈) assume the structure as drawn.
How the values were obtained:
[1] = target: T1, Arachidonate 5-lipoxygenase-activating protein (Homo sapiens, UniProt P20292); assay: Displacement of [125I]-L-691831 from human FLAP expressed in Sf9 cell membranes after 2 hrs by Topcount method
T1 sequence (P20292 whole entry): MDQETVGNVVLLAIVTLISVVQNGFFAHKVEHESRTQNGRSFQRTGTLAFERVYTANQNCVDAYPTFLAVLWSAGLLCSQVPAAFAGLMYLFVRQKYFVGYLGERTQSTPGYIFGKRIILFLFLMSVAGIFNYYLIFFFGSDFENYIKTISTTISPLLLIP

[2] = target: T1, Arachidonate 5-lipoxygenase-activating protein; assay: Inhibition of FLAP in calcimycin-stimulated human whole blood assessed as reduction in LTB4 production pretreated for 15 mins followed by calcimycin addition after 30 mins by ELISA
[3] = target: T2, hERG (KCNH2) (Homo sapiens, UniProt Q12809); assay: Inhibition of human ERG expressed in CHO cells at 41 uM at -70mV holding potential measured after 300 secs by IonWorks electrophysiology method relative to control; assay type: cell-based; details: CHO cells expressing human ERG
T2 sequence (Q12809 whole entry): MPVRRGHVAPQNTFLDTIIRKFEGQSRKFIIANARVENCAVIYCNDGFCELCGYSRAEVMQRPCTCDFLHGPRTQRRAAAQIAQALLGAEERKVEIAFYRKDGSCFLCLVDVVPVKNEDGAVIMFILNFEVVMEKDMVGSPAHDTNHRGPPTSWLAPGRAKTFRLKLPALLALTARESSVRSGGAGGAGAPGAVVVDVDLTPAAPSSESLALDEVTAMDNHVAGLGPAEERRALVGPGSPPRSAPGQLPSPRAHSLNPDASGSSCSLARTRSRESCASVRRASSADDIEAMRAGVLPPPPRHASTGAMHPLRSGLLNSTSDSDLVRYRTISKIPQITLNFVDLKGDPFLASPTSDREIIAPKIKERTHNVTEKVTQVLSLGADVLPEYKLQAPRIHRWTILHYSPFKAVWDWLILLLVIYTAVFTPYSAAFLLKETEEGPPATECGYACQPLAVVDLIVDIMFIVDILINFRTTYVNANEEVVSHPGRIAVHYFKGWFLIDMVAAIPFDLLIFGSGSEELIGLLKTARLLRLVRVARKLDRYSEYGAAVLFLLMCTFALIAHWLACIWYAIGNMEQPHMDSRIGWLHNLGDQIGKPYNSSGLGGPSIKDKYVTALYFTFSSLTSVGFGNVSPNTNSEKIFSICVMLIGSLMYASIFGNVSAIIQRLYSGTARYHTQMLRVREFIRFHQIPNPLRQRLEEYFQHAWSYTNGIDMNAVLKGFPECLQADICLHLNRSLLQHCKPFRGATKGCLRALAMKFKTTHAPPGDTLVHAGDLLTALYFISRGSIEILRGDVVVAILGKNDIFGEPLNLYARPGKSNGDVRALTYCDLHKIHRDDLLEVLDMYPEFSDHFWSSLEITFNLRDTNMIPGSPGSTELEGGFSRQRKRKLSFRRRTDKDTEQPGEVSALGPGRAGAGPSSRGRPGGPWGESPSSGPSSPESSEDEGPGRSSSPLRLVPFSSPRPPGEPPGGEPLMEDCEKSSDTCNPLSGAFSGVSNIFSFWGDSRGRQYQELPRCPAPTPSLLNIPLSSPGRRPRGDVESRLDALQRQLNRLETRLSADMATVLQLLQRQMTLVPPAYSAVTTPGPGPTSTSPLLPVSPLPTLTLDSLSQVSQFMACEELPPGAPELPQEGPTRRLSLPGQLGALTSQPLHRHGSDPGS

[4] = Stability in human liver microsomes at 1 uM pretreated for 10 mins followed by NADPH addition after 60 mins by LC/MS analysis relative to hepatic blood flow; assay type: ADME, microsome; details: read-out: Stability
[5] = target: T2, hERG (KCNH2); assay: Inhibition of human ERG expressed in CHO cells at 10 uM at -70mV holding potential measured after 300 secs by IonWorks electrophysiology method relative to control; assay type: cell-based; details: CHO cells expressing human ERG
[6] = Clearance in human hepatocytes at 1 uM measured after 1 hr by LC/MS analysis relative to hepatic blood flow; assay type: ADME, cell-based, Hepatocyte
[7] = target: T2, hERG (KCNH2); assay: Inhibition of human ERG expressed in HEK293 cells at 37 uM by whole-cell patch clamp method relative to control; assay type: cell-based; details: HEK293 cells expressing human ERG
[8] = Aqueous kinetic solubility of the compound at pH 7.4; assay type: physicochemical; details: for solubility kinetic: aqueous, read-out: Kinetic_solubility; for Kinetic_solubility: buffer
[9] = target: T2, hERG (KCNH2); assay: Inhibition of human ERG expressed in CHO cells at 13 uM at -70mV holding potential measured after 300 secs by IonWorks electrophysiology method relative to control; assay type: cell-based; details: CHO cells expressing human ERG
[10] = target: T2, hERG (KCNH2); assay: Inhibition of human ERG expressed in CHO cells at 9 uM at -70mV holding potential measured after 300 secs by IonWorks electrophysiology method relative to control; assay type: cell-based; details: CHO cells expressing human ERG
[11] = Aqueous equilibrium solubility in citric acid/disodium phosphate buffer at pH 6.8 at 1 uM after 24 hrs by HPLC method; assay type: physicochemical; details: for solubility thermodynamic at 24 h, 1 µM: citric acid/disodium phosphate buffer, pH 6.8
[12] = target: T2, hERG (KCNH2); assay: Inhibition of human ERG expressed in CHO cells at 16 uM at -70mV holding potential measured after 300 secs by IonWorks electrophysiology method relative to control; assay type: cell-based; details: CHO cells expressing human ERG
[13] = target: T2, hERG (KCNH2); assay: Inhibition of human ERG expressed in CHO cells at 42 uM at -70mV holding potential measured after 300 secs by IonWorks electrophysiology method relative to control; assay type: cell-based; details: CHO cells expressing human ERG
[14] = target: T2, hERG (KCNH2); assay: Inhibition of human ERG expressed in CHO cells at 21 uM at -70mV holding potential measured after 300 secs by IonWorks electrophysiology method relative to control; assay type: cell-based; details: CHO cells expressing human ERG
[15] = target: T2, hERG (KCNH2); assay: Inhibition of human ERG expressed in HEK293 cells at 30 uM by whole-cell patch clamp method relative to control; assay type: cell-based; details: HEK293 cells expressing human ERG
[16] = system: Rattus norvegicus; assay: Clearance in Sprague-Dawley rat at 1 mg/kg, iv by HPLC-MS/MS analysis relative to hepatic blood flow; assay type: ADME, organism-based; details: in vivo
[17] = Volume of distribution at steady state in Sprague-Dawley rat at 1 mg/kg, iv by HPLC-MS/MS analysis; assay type: ADME, organism-based; details: in vivo, read-out: Vdss
[18] = Mean residence time in Sprague-Dawley rat at 1 mg/kg, iv by HPLC-MS/MS analysis; assay type: ADME, organism-based; details: in vivo
[19] = Oral bioavailability in Sprague-Dawley rat at 3 mg/kg by HPLC-MS/MS analysis; assay type: ADME, organism-based; details: in vivo
[20] = target: T2, hERG (KCNH2); assay: Inhibition of human ERG expressed in CHO cells at 34 uM at -70mV holding potential measured after 300 secs by IonWorks electrophysiology method relative to control; assay type: cell-based; details: CHO cells expressing human ERG
[21] = target: T2, hERG (KCNH2); assay: Inhibition of human ERG expressed in HEK293 cells at 34 uM by whole-cell patch clamp method relative to control; assay type: cell-based; details: HEK293 cells expressing human ERG
[22] = system: Rattus norvegicus; assay: Clearance in Wistar rat at 1 mg/kg, iv by HPLC-MS/MS analysis relative to hepatic blood flow; assay type: ADME, organism-based; details: in vivo
[23] = Volume of distribution at steady state in Wistar rat at 1 mg/kg, iv by HPLC-MS/MS analysis; assay type: ADME, organism-based; details: in vivo, read-out: Vdss
[24] = Mean residence time in Wistar rat at 1 mg/kg, iv by HPLC-MS/MS analysis; assay type: ADME, organism-based; details: in vivo
[25] = Oral bioavailability in Wistar rat at 3 mg/kg by HPLC-MS/MS analysis; assay type: ADME, organism-based; details: in vivo

Row | Compound | IC50 [1] [nM] | IC50 [2] [nM] | hepatic extraction ratio at 1 h, 1 µM [4] | hepatic extraction ratio at 1 h, 1 µM [6] | Kinetic_solubility [8] | solubility thermodynamic at 24 h, 1 µM [11] [µg/mL] | further results
1 | C[C@@](c1ccc(-c2cnc(N)nc2)nc1)(c1noc(N2CCC(O)CC2)n1)C1CC1 | 434 | 324 |  |  |  |  | inhibition at 5 min, 41 µM [3]: 17%
2 | Cn1cc(-c2nc([C@@](C)(c3ccc(-c4cnc(N)nc4)nc3)C3CC3)no2)cn1 | 3 | 26 | < 0.3 | 0.59 |  |  | inhibition at 5 min, 10 µM [5]: 13%
3 | CC(C)[C@](C)(c1ccc(-c2cnc(N)nc2)nc1)c1noc(-c2cnn(CC#N)c2)n1 | 23 | 40 | < 0.24 | 0.31 |  |  | inhibition at 37 µM [7]: 38%
4 | Nc1ncc(-c2ccc(C3(c4noc(N5CCC(CO)CC5)n4)CCC3)cc2)cn1 | 46 | 173 | 0.36 |  |  |  | solubility kinetic [8]: 14 µg/mL (≈ 34.4 µM); inhibition at 5 min, 13 µM [9]: 68%
5 | CN(c1cnn(C)c1)c1nc([C@@](C)(c2ccc(-c3cnc(N)nc3)cc2)C2CC2)no1 | 29 | 92 | 0.34 |  | Soluble |  | inhibition at 5 min, 9 µM [10]: 45%; solubility ([11]; buffer, pH 6.8, 24 h, 1 µM): Soluble
6 | CC1(O)CCN(c2nc(C3(c4ccc(-c5cnc(N)nc5)cc4)CCC3)no2)CC1 | 17 | 87 | 0.29 |  |  |  | solubility kinetic [8]: > 40 µg/mL; inhibition at 5 min, 16 µM [12]: 45%
7 | CC(C)(O)Cn1cc(-c2nc([C@@](C)(c3ccc(-c4cnc(N)nc4)nc3)C3CC3)no2)cn1 |  |  |  |  | Soluble | 26 (≈ 58.2 µM) | inhibition at 5 min, 42 µM [13]: 34%
8 | CC1(O)CCN(c2nc([C@@](C)(c3ccc(-c4cnc(N)nc4)cc3)C3CC3)no2)CC1 | 5.6 | 13 | 0.58 |  |  |  | inhibition at 5 min, 21 µM [14]: 31%
9 | CC(C)[C@](C)(c1ccc(-c2cnc(N)nc2)nc1)c1noc(-c2cnn(CC(C)(C)O)c2)n1 | 13 | 41 | < 0.3 | 0.3 | Soluble | 210 (≈ 468 µM) | inhibition at 30 µM [15]: 21%; CL [16]: 10%; Vd [17]: 2 L/kg; MRT [18]: 4.6 h; bioavailability [19]: 114%
10 | C[C@@](c1ccc(-c2cnc(N)nc2)cc1)(c1noc(N2CCC(O)CC2)n1)C1CC1 |  |  |  |  |  | 111 (≈ 273 µM) | inhibition at 5 min, 34 µM [20]: 30%; inhibition at 34 µM [21]: 30%; CL [22]: 33%; Vd [23]: 1.6 L/kg; MRT [24]: 1.6 h; bioavailability [25]: 75%

From ChEMBL document CHEMBL4043239, “Discovery and optimization of oxadiazole-based FLAP inhibitors” (Bioorg Med Chem Lett, 2017)
